Results from ChEMBL document CHEMBL1139695, “Development of pyrimidine-based inhibitors of Janus tyrosine kinase 3” (Bioorg Med Chem Lett, 2006).

Columns and labels:
TF-1 [1] = assay: cells; conditions: Homo sapiens
Description: Inhibition of IL4-induced proliferation of TF1 cells

TF-1 [2] = assay: cells; conditions: Homo sapiens; remark: listed apart in the source
Description: Inhibition of IL3-induced proliferation of TF1 cells

C[C@H](Nc1ccnc(-n2cnc3ccncc32)n1)c1ccc(F)cc1
IC50 (TF-1 [1]): 335 nM
IC50 (TF-1 [2]): 635 nM
